{
  "source": "ChEMBL document CHEMBL1158393",
  "about": "“Synthesis, characterization and in vitro antiproliferative activities of new 13-cis-retinoyl ferrocene derivatives” (Eur J Med Chem, 2009)",
  "type_in_all_cases": "functional, cell-based",
  "key": {"A549": {"test_system": "A549", "assay": "Cytotoxicity against human A549 cells after 24 hrs by MTT assay", "settings": "A549, 24 h"}, "[1]": {"assay": "Cytotoxicity against human Bel7404 cells after 24 hrs by MTT assay", "settings": "BEL-7404, 24 h"}, "[2]": {"assay": "Cytotoxicity against human Tca cells after 24 hrs by MTT assay"}},
  "data": [
    {"smiles": "CC1=C(/C=C/C(C)=C/C=C/C(C)=C\\C(=O)O)C(C)(C)CCC1", "note": "[ISOTRETINOIN]", "values": [
      {"measurement": "IC50", "setting": "A549", "result": 35.8, "unit": "µM"},
      {"measurement": "IC50", "setting": "[1]", "result": 42.6, "unit": "µM"},
      {"measurement": "IC50", "setting": "[2]", "result": 39.7, "unit": "µM"}
    ]}
  ]
}
